Reference: patent US9328099B2, “Cyanomethylpyrazole carboxamides as janus kinase inhibitors” (Merck Sharp & Dohme Corp., priority 2011, dated 2016)

Columns and labels:
[1] = target: JAK1 (Homo sapiens (Human), UniProt P23458); assay: Jak Biochemical HTRF Assay, JAK1; conditions: HTRF biochemical assay, GST-tagged catalytic domain; top concentration tested […]; read-out: JAK1 IC50
Source text: (§1) Jak Biochemical HTRF Assay Protocol
(§2) Subsequent reagent additions employed an Agilent Bravo.

[2] = target: JAK2 (Homo sapiens (Human), UniProt O60674); assay: Jak Biochemical HTRF Assay, JAK2; conditions: HTRF biochemical assay, GST-tagged catalytic domain; top concentration tested […]
Source text: as §1, §2

Chain of JAK1 (P23458 875-1153): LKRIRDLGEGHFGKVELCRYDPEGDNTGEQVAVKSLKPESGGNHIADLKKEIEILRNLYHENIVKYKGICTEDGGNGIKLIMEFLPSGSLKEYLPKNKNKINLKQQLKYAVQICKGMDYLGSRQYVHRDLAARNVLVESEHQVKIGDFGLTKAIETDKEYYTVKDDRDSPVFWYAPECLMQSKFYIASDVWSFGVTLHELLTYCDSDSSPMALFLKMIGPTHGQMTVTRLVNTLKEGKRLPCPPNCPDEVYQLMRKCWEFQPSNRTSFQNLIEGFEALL
Chain of JAK2 (O60674 849-1124): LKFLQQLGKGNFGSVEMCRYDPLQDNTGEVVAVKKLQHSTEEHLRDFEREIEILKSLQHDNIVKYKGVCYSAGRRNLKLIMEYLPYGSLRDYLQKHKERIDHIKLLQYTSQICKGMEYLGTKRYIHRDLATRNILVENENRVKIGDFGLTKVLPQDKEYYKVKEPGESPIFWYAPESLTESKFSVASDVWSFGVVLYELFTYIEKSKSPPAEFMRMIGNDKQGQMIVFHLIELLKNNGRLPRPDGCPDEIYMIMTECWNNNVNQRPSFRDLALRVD

Row | Structure (SMILES) | IC50 [1] [nM] | IC50 [2] [nM]
1 | CCOc1ccccc1NC(=O)N1CC(CC#N)(n2cc(C(N)=O)c(Nc3ccccc3)n2)C1 [Example 38-30, 1-{3-(cyanomethyl)-1-[(2-ethoxyphenyl)carbamoyl]azetidin-3-yl}-3-(phenylamino)-1H-pyrazole-4-carboxamide] | 62 | 507
2 | Cc1cccc(C)c1NC(=O)N1CC(CC#N)(n2cc(C(N)=O)c(Nc3ccccc3)n2)C1 [Example 38-31, 1-{3-(cyanomethyl)-1-[(2,6-dimethylphenyl)carbamoyl]azetidin-3-yl}-3-(phenylamino)-1H-pyrazole-4-carboxamide] | 33 | 656
3 | CC(=O)c1cccc(NC(=O)N2CC(CC#N)(n3cc(C(N)=O)c(Nc4ccccc4)n3)C2)c1 [Example 38-32, 1-{1-[(3-acetylphenyl)carbamoyl]-3-(cyanomethyl)azetidin-3-yl}-3-(phenylamino)-1H-pyrazole-4-carboxamide] | 4 | 86
4 | C[C@@H](NC(=O)N1CC(CC#N)(n2cc(C(N)=O)c(Nc3ccccc3)n2)C1)c1ccccc1 [Example 38-33, 1-[3-(cyanomethyl)-1-{[(1R)-1-phenylethyl]carbamoyl}azetidin-3-yl]-3-(phenylamino)-1H-pyrazole-4-carboxamide] | 26 | 265
5 | CCc1cccc(NC(=O)N2CC(CC#N)(n3cc(C(N)=O)c(Nc4ccccc4)n3)C2)c1 [Example 38-35, 1-{3-(cyanomethyl)-1-[(3-ethylphenyl)carbamoyl]azetidin-3-yl}-3-(phenylamino)-1H-pyrazole-4-carboxamide] | 8 | 144
6 | COc1ccc(NC(=O)N2CC(CC#N)(n3cc(C(N)=O)c(Nc4ccccc4)n3)C2)c(C)c1 [Example 38-36, 1-{3-(cyanomethyl)-1-[(4-methoxy-2-methylphenyl)carbamoyl]azetidin-3-yl}-3-(phenylamino)-1H-pyrazole-4-carboxamide] | 15 | 233
7 | Cc1ccc(NC(=O)N2CC(CC#N)(n3cc(C(N)=O)c(Nc4ccccc4)n3)C2)cc1F [Example 38-37, 1-{3-(cyanomethyl)-1-[(3-fluoro-4-methylphenyl)carbamoyl]azetidin-3-yl}-3-(phenylamino)-1H-pyrazole-4-carboxamide] | 8 | 114
8 | CCc1ccccc1NC(=O)N1CC(CC#N)(n2cc(C(N)=O)c(Nc3ccccc3)n2)C1 [Example 38-39, 1-{3-(cyanomethyl)-1-[(2-ethylphenyl)carbamoyl]azetidin-3-yl}-3-(phenylamino)-1H-pyrazole-4-carboxamide] | 16 | 303
9 | N#CCC1(n2cc(C(N)=O)c(Nc3ccccc3)n2)CN(C(=O)Nc2ccc(F)c(Cl)c2)C1 [Example 38-40, 1-{1-[(3-chloro-4-fluorophenyl)carbamoyl]-3-(cyanomethyl)azetidin-3-yl}-3-(phenylamino)-1H-pyrazole-4-carboxamide] | 18 | 279
10 | Cc1ccc(NC(=O)N2CC(CC#N)(n3cc(C(N)=O)c(Nc4ccc(S(C)(=O)=O)cc4)n3)C2)cc1 [Example 38-41, 1-{3-(cyanomethyl)-1-[(4-methylphenyl)carbamoyl]azetidin-3-yl}-3-{[4-(methylsulfonyl)phenyl]amino}-1H-pyrazole-4-carboxamide] | 13 | 175
11 | CS(=O)(=O)c1ccc(Nc2nn(C3(CC#N)CN(C(=O)Nc4cc(F)ccc4F)C3)cc2C(N)=O)cc1 [Example 38-42, 1-{3-(cyanomethyl)-1-[(2,5-difluorophenyl)carbamoyl]azetidin-3-yl}-3-{[4-(methylsulfonyl)phenyl]amino}-1H-pyrazole-4-carboxamide] | 19 | 237
12 | CCCCNC(=O)N1CC(CC#N)(n2cc(C(N)=O)c(Nc3ccc(S(C)(=O)=O)cc3)n2)C1 [Example 38-43, 1-[1-(butylcarbamoyl)-3-(cyanomethyl)azetidin-3-yl]-3-{[4-(methylsulfonyl)phenyl]amino}-1H-pyrazole-4-carboxamide] | 20 | 322
13 | CC(C)NC(=O)N1CCC(CC#N)(n2cc(C(N)=O)c(Nc3ccc(S(=O)(=O)C(F)(F)F)cc3)n2)CC1 [Example 38-44, 4-(4-carbamoyl-3-(4-(trifluoromethylsulfonyl)phenylamino)-1H-pyrazol-1-yl)-4-(cyanomethyl)-N-isopropylpiperidine-1-carboxamide] | 0.1 | 2
14 | N#CCC1(n2cc(C(N)=O)c(Nc3ccc(S(=O)(=O)C(F)(F)F)cc3)n2)CCN(C(=O)Nc2ccc(C#N)cc2)CC1 [Example 38-45, 4-(4-carbamoyl-3-(4-(trifluoromethylsulfonyl)phenylamino)-1H-pyrazol-1-yl)-4-(cyanomethyl)-N-(4-cyanophenyl)piperidine-1-carboxamide] | 0.1 | 0.5
15 | CC(C)NC(=O)N1CCC(CC#N)(n2cc(C(N)=O)c(Nc3ccccc3)n2)CC1 [Example 38-46, 4-[4-Carbamoyl-3-(phenylamino)-1H-pyrazol-1-yl]-4-(cyanomethyl)-N-(1-methylethyl)piperidine-1-carboxamide] | 2 | 59
16 | N#CCC1(n2cc(C(N)=O)c(Nc3ccc(F)cc3)n2)CCC(NC2CCOCC2)CC1 (stereo not drawn) [Example 40-5, Cis or trans 1-[1-(cyanomethyl)-4-(tetrahydro-2H-pyran-4-ylamino)cyclohexyl]-3-[(4-fluorophenyl)amino]-1H-pyrazole-4-carboxamide] | 449 | > 1500

Second part, the molecule after the results:

Row | IC50 [1] [nM] | IC50 [2] [nM] | Structure (SMILES)
17 | 0.09 | 2 | N#CCC1(n2cc(C(N)=O)c(Nc3ccc(Cl)cc3)n2)CCC(N2CC(F)C2)CC1 (stereo not drawn) [Example 39-1, Cis or trans 3-((4-chlorophenyl)amino)-1-(1-(cyanomethyl)-4-(3-fluoroazetidin-1-yl)cyclohexyl)-1H-pyrazole-4-carboxamide]
18 | 119 | > 1500 | N#CCC1(n2cc(C(N)=O)c(Nc3ccc(F)cc3)n2)CCC(Nc2cccc(F)c2)CC1 (stereo not drawn) [Example 40-3, Cis or trans 1-{1-(cyanomethyl)-4-[(3-fluorophenyl)amino]cyclohexyl}-3-[(4-fluorophenyl)amino]-1H-pyrazole-4-carboxamide]
19 | 14 | 355 | N#CCC1(n2cc(C(N)=O)c(Nc3ccnc(F)c3)n2)CCC(Nc2cc(F)ccc2F)CC1 (stereo not drawn) [Example 40-10, Cis or trans 1-{1-(cyanomethyl)-4-[(2,5-difluorophenyl)amino]cyclohexyl}-3-[(2-fluoropyridin-4-yl)amino]-1H-pyrazole-4-carboxamide]
20 | 0.2 | 7 | N#CCC1(n2cc(C(N)=O)c(Nc3ccnc(F)c3)n2)CCC(Nc2ccccc2Cl)CC1 (stereo not drawn) [Example 40-11, Cis or trans 1-{4-[(2-chlorophenyl)amino]-1-(cyanomethyl)cyclohexyl}-3-[(2-fluoropyridin-4-yl)amino]-1H-pyrazole-4-carboxamide]
21 | 2 | 73 | N#CCC1(n2cc(C(N)=O)c(Nc3ccc(F)cc3)n2)CCC(Nc2ccccn2)CC1 (stereo not drawn) [Example 40-12, Cis or trans 1-[1-(cyanomethyl)-4-(pyridin-2-ylamino)cyclohexyl]-3-[(4-fluorophenyl)amino]-1H-pyrazole-4-carboxamide]
22 | 0.08 | 2 | CN(c1ccccc1)C1CCC(CC#N)(n2cc(C(N)=O)c(Nc3ccnc(F)c3)n2)CC1 (stereo not drawn) [Example 40-15, Cis or trans 1-{1-(cyanomethyl)-4-[methyl(phenyl)amino]cyclohexyl}-3-[(2-fluoropyridin-4-yl)amino]-1H-pyrazole-4-carboxamide]
23 | 0.3 | 18 | N#CCC1(n2cc(C(N)=O)c(Nc3ccc(F)cc3)n2)CCC(Nc2cccc(F)c2)CC1 (stereo not drawn) [Example 40-16, Cis or trans 1-{1-(cyanomethyl)-4-[(3-fluorophenyl)amino]cyclohexyl}-3-[(4-fluorophenyl)amino]-1H-pyrazole-4-carboxamide]
24 | 235 | > 1500 | N#CCC1(n2cc(C(N)=O)c(Nc3ccc(F)cc3)n2)CCC(Nc2ccc(F)cc2)CC1 (stereo not drawn) [Example 40-18, Cis or trans 1-{1-(cyanomethyl)-4-[(4-fluorophenyl)amino]cyclohexyl}-3-[(4-fluorophenyl)amino]-1H-pyrazole-4-carboxamide]
25 | 0.3 | 10 | N#CCC1(n2cc(C(N)=O)c(Nc3ccc(F)cc3)n2)CCC(Nc2ccc(F)cc2)CC1 (stereo not drawn) [Example 40-19, Cis or trans 1-{1-(cyanomethyl)-4-[(4-fluorophenyl)amino]cyclohexyl}-3-[(4-fluorophenyl)amino]-1H-pyrazole-4-carboxamide]
26 | 1 | 43 | N#CCC1(n2cc(C(N)=O)c(Nc3ccnc(F)c3)n2)CCC(Nc2ccc(F)c(F)c2)CC1 (stereo not drawn) [Example 40-20, Cis or trans 1-{1-(cyanomethyl)-4-[(3,4-difluorophenyl)amino]cyclohexyl}-3-[(2-fluoropyridin-4-yl)amino]-1H-pyrazole-4-carboxamide]
27 | 171 | > 1500 | N#CCC1(n2cc(C(N)=O)c(Nc3ccc(F)cc3)n2)CCC(N2CCc3ccccc32)CC1 (stereo not drawn) [Example 40-21, Cis or trans 1-[1-(cyanomethyl)-4-(2,3-dihydro-1H-indol-1-yl)cyclohexyl]-3-[(4-fluorophenyl)amino]-1H-pyrazole-4-carboxamide]
28 | 2 | 237 | N#CCC1(n2cc(C(N)=O)c(Nc3ccnc(F)c3)n2)CCC(NC2CCCCC2)CC1 (stereo not drawn) [Example 40-23, Cis or trans 1-[1-(cyanomethyl)-4-(cyclohexylamino)cyclohexyl]-3-[(2-fluoropyridin-4-yl)amino]-1H-pyrazole-4-carboxamide]
29 | 63 | 940 | N#CCC1(n2cc(C(N)=O)c(Nc3ccnc(F)c3)n2)CCC(Nc2ccccc2Cl)CC1 (stereo not drawn) [Example 40-25, Cis or trans 1-{4-[(2-chlorophenyl)amino]-1-(cyanomethyl)cyclohexyl}-3-[(2-fluoropyridin-4-yl)amino]-1H-pyrazole-4-carboxamide]
